# Entries after “also recorded” stand apart in the source; their conditions may differ.
# Key:
# [1] = biological target: HLA-DR2 (DRB1*1501; β86V) wild-type molecule (Homo sapiens, UniProt P01903+P01911); experiment: Catalysis of peptide binding to HLA-DR2 wild-type molecule on fibroblast cells
# Method: The test was carried out as described under Comparison Test 3.3.
# [2] = biological target: T1, soluble HLA-DR1 (DRA1*0101, DRB1*0101) (Homo sapiens, UniProt P01903+P01911, A100R/D57E/F55L/F60I/F76Y/I96L/L162R/M171V/P40L/Q125E/R42F/V115G/Y59C); experiment: Loading of empty soluble HLA-DR1 with biotinylated HA306-318 peptide, sandwich ELISA; type: biochemical
# T1 construct: shortened α- and […]-chains without the cytoplasmatic and transmembrane portion of the MHC molecule; made in house; host or cells: S2 insect cells
# Method: In order to monitor catalysis of the loading of HLA-DR molecules by compounds of formulae I, IA, II, III and IV1 to IV3, empty, soluble DR molecules were incubated with biotinylated, high-affinity peptide, and these were then detected in a sandwich ELISA for the MHC complexes.
# All the batches were then adjusted to a final volume of 10 μl with 2% BSA-PO4^3− buffer (in the case of HLA-DR1 only with PO4^3− buffer). The reaction was started by incubation at 37° C. in a thermocycler. After 40 minutes, the incubation was terminated and the loading reaction was stopped by storage on ice and addition of 50 μl of ice-cold 1% BSA-PBS.
# The detection of bound peptide was carried out by means of a sandwich ELISA. […] Between these steps, the plate was washed twice with PBS-0.05% Tween with the aid of a PW plate-washing device (Tecan Industries) and, before filling with fresh solution, all remaining liquid residues were removed by tapping on Scott®Natura paper towels (Hakle-Kimberly Deutschland GmbH). After blocking of non-specific binding sites, the plate was washed three times and filled with 50 μl/well of 1% BSA-PBS. 2×25 μl per reaction batch were transferred to the plate as double values and were carefully mixed thereon (total volume per well: 75 μl). From each filled series, a further 25 μl/well were then again titrated on the plate in a series of two-stage dilutions (final volume per well: 50 μl). The plates so filled were then stored for 2 hours at 4° C. under stationary conditions. Each plate was then washed six times as described above and filled with 80 μl/well of Eu^3+-streptavidin staining solution (europium-streptavidin stock solution diluted 1:10,000 with 1% BSA-PBS) and incubated for 30 minutes at room temperature (RT). After washing for a further eight times, 100 μl/well of fluorescence-activated solution (enhancer) were then added and the signal was measured by means of a Victor^2-multilabelcounter (Wallac Oy) at an excitation wavelength of 340 nm and an emission wavelength of 615 nm in time-resolving mode.
# The following experiment was therefore carried out. One catalyst in a fixed concentration of 0.05 mM was introduced into each of a number of batches for loading HLA-DR1 with HA-biot. The same concentration of a second catalyst was then added to each batch. As controls, 1×1% DMSO was added and, as negative control, a reaction mixture was prepared with 2×1% DMSO. The reaction mixtures were then incubated for 40 minutes as already described and the load was measured in a sandwich ELISA.
# The resulting load was then determined in an ELISA using biotinylated peptide (see FIG. 1).
# The amount of peptide/MHC complexes formed within this time was then determined by means of an ELISA assay (capture antibody: anti-HLA-DR; detection: fluorescent-labelled streptavidin). The activities of the individual compounds were grouped on the basis of the dose/activity curves obtained thereby.
# HLA-DR1 (DRB1*0101) = biological target: T2, HLA-DR1 (DRB1*0101) (Homo sapiens, UniProt P01903+P01911, A100R/D57E/F55L/F60I/F76Y/I96L/L162R/M171V/P40L/Q125E/R42F/V115G/Y59C); experiment: HLA-DR1-restricted T-cell response after catalysed loading of 721.221 cells (EvHA/X5, hCII19.3 T-cells); type: cell-based; conditions: HA306-318 (EvHA/X5) or CO260-273 (hCII19.3) loaded onto 721.221 cells
# T2 construct: HLA-DR-expressing 721.221 cells; endogenous in cells; host or cells: 721.221 cells
# Description: In the present comparison test, the enhancement of the T-cell response by catalysis of the loading of HLA-expressing cells was investigated. […] Either HA306-318 (see also FIG. 3, left-hand panel) or CO260-273 (see also FIG. 3, right-hand panel) was used as peptide antigen. After the loading, the cells were washed and used to stimulate EvHA/X5 and hCII19.3 cells, respectively.
# In order to investigate the catalysis of a HLA-DR1 (DRB1*0101)-restricted T-cell response by various catalytically active adamantyl compounds, dose-activity curves of the catalysis of a HLA-DR1 (DRB1*0101)-restricted T-cell response were prepared. The experiment was carried out analogously to Comparison Experiment 3.3, the peptide antigen HA306-318 being loaded onto 721.221 cells in order thereby to stimulate EvHA/X5 T-cells. […] Because the position of the dose-activity curves is evidently also determined by the side chain, a modulating activity can be attributed thereto.
# [3] = test system: DCs from HLA-DR1 (DRB1*0101)-transgenic mice; experiment: Loading of dendritic cells with HA306-318 and DC-mediated T-cell response; type: cell-based
# Method: Dendritic cells ([…]) are one of the most important sub-groups of “professional” antigen-presenting cells. Therefore, in the present example, DCs from HLA-DR1 (DRB1*0101)-transgenic mice were used, the DCs being loaded for 4 hours with biotinylated HA306-318 peptide. Then, in order to determine the peptide load, the cells were stained with streptavidin-APC (SA-APC) and also with anti-HLA-DR and analysed by continuous-flow cytometry (FIG. 14A).
# HLADR2 (DRB1*1501) = biological target: T3, HLADR2 (DRB1*1501) (Homo sapiens, UniProt P01903+P01911); experiment: HLA-DR2-restricted T-cell response (08073 T-cells, MGAR cells) after catalysed loading; type: cell-based; conditions: MBP86-100, 08073 T-cells
# T3 construct: endogenous in cells; host or cells: MGAR cells
# Method: (§1) For evaluation, dose-activity curves of a HLA-DR4-restricted (FIG. 4, left-hand panel) and a HLA-DR2-restricted T-cell response (FIG. 4, right-hand panel) were prepared.
# [4] = test system: HLA-DR molecules with a deep or flat P1 pocket (β86G and β86V); experiment: T-cell assays on HLA-DR molecules with a deep or flat P1 pocket; type: cell-based, human; conditions: dose-activity curves
# Method: (§2) In the following, the catalysis of HLA loading by pCP was determined for the purposes of comparison. […] These dose-activity curves show the activity of the two catalysts on HLA-DR molecules with a deep or flat P1 pocket {β86G and β86V} as well as on the mouse MHC class II molecules H2-Ek and H2-Ak.
# HLA-DR4 (DRB1*0401) = HLA-DR4 (DRB1*0401) (Homo sapiens, UniProt P01903+P01911, A100K/A169T/F76Y/I96L/K127E/L162R/M171V/N62H/P40V/Q125Y/R42H/S133A/S149N/S66Y/V115G/V209L/W38E); conditions: HA306-318, 8475/94 T-cells
# Method: as §1
# H2-E^k = experiment: T-cell assay on mouse MHC class II molecule H2-E; type: cell-based; conditions: T-cell assays
# Method: as §2
# H2-A^k = H2-A^k (Mus musculus, UniProt P01910+P06343); experiment: T-cell assay on mouse MHC class II molecule H2-A; type: cell-based; conditions: T-cell assays
# Method: as §2
# Chain of H2-A^k (P01910 24-256): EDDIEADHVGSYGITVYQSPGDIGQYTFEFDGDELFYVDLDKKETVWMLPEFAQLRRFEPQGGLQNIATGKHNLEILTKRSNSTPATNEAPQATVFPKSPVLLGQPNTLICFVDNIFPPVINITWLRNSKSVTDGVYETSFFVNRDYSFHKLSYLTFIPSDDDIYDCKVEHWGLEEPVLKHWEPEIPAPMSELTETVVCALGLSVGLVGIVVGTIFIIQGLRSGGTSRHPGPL
# Chain of H2-A^k (P06343 28-263): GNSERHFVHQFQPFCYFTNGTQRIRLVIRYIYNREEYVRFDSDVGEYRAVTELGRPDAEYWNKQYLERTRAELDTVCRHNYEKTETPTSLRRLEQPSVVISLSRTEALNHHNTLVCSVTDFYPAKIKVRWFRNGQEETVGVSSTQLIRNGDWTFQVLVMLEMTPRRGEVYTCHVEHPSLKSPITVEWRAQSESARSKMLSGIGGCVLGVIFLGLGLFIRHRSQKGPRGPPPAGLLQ
compound,measurement,setting,value
"OCCC12CC3CC(CC(C3)C1)C2 [I 1, 2-(1-adamantyl)-ethanol]",catalysis of the binding of MBP86-100 to HLA-DR2 wild-type molecule,[1],unable to effect catalysis
same,catalytic activity in the ELISA,[2],substantially greater catalytic activity
same,immune response of HLA-DR1-restricted T-cells,HLA-DR1 (DRB1*0101),markedly enhanced
same,HA306-318 peptide concentration that triggers the T-cell response reached at 100 ng/ml without catalyst,[3]; 250 μM catalyst,less than 10 ng/ml
same,peptide signal on the surface of the DCs,"[3]; 250 μM, 4 hours, biotinylated HA306-318",markedly stronger peptide signal
same,strength of T-cell responses vs DCs loaded without catalyst,[3]; DCs loaded with antigen in the presence of catalyst,up to 15 times
same,HLA-DR2-restricted T-cell response,HLADR2 (DRB1*1501),unable to effect catalysis
"Oc1ccc(Cl)cc1 [pCP, p-chlorophenol]",activity on HLA-DR molecules with deep or flat P1 pocket,[4],no dependence on the […]86 dimorphism; also recorded: independent of the depth of the P1 pocket
same,HLA-DR4-restricted T-cell response,HLA-DR4 (DRB1*0401),enhancing effect on all the HLA-DR molecules investigated
same,effect on H2-E molecules,H2-E^k,no effect
same,effect on H2-A molecules,H2-A^k,no effect
same,HLA-DR2-restricted T-cell response,HLADR2 (DRB1*1501),enhancing effect on all the HLA-DR molecules investigated

# Reference: patent US20070280957A1, “Change of the Load State of Mhc Molecules” (priority 2004, published 2007)
